Data from patent US20230111853A1, “COMPOUNDS MODULATING PROTEIN RECRUITMENT AND/OR DEGRADATION” (Orionis Biosciences, Inc., priority 2019, published 2023).
Where two headings read alike, the source gives them in different places.

Assays:
[1] = test system: IKZF1, ASS1 and SALL4 recruitment to CRBN; assay: Recruitment assessment: recruitment of any tested substrate from among IKZF1, ASS1 and SALL4; format: cell-based; settings: any tested substrate at any tested compound concentration
CRBN = CRBN (Homo sapiens, UniProt Q96SW2); assay: Competition Assay (MAPPIT-like, competition with trimethoprim-lenalidomide hybrid ligand for binding to CRBN in cells)
[2] = target: T1, SALL4 recruitment to CRBN (Homo sapiens, UniProt Q96SW2); assay: Recruitment Assay (MAPPIT-like): SALL4 recruitment to CRBN; format: cell-based; settings: HEK293T cells; pSEL-SALL4+pMG1-CRBN; luciferase 24 hours after treatment; read-out: EC50_SALL4
T1 construct: Full size proteins were fused for each of the target proteins tested, except in the case of IKZF1 where isoform 7 was used; expressed in transfected cells; host or cells: HEK293T
Procedure: (§1) In this experimental set-up, cells were transfected with a construct encoding a CRBN-fusion protein and another one encoding a substrate-fusion protein. Test compound activity was assessed with increasing concentrations of test compounds (dose-response studies) to monitor the ability to promote CRBN-ligand-induced protein interaction.
(§2) Full size proteins were fused for each of the target proteins tested, except in the case of IKZF1 where isoform 7 was used. For the study, the following were used: IKZF1 recruitment: pSEL-CRBN+pMG1-IKZF1(isoform 7); ASS1 recruitment: pSEL-CRBN+pMG1-ASS1. SALL4 recruitment: pSEL-SALL4+pMG1-CRBN. […] Luciferase activity was measured 24 hours after test compound treatment using the Luciferase Assay System kit (PROMEGA, Madison, Wis.) with an Ensight plate reader (PERKIN ELMER LIFE SCIENCES, Waltham, Mass.). Data points depicted fold induction of the average luciferase activity of triplicate samples from EPO+test compound treated cells versus EPO only treated cells. Error bars represent standard deviations. Curves were fit using 4-parameter nonlinear regression in […] PRISM software.

ASS1 recruitment to CRBN = target: T2, ASS1 recruitment to CRBN (Homo sapiens, UniProt Q96SW2); assay: Recruitment Assay (MAPPIT-like): ASS1 recruitment to CRBN; format: cell-based; settings: HEK293T cells; pSEL-CRBN+pMG1-ASS1; luciferase 24 hours after treatment; read-out: EC50_ASS1
T2 construct: Full size proteins were fused for each of the target proteins tested, except in the case of IKZF1 where isoform 7 was used; expressed in transfected cells; host or cells: HEK293T
Procedure: as §1, §2

[3] = target: T3, IKZF1 (isoform 7) recruitment to CRBN (Homo sapiens, UniProt Q96SW2); assay: Recruitment Assay (MAPPIT-like): IKZF1 recruitment to CRBN; format: cell-based; settings: HEK293T cells; pSEL-CRBN+pMG1-IKZF1(isoform 7); luciferase 24 hours after treatment; read-out: EC50_IKZF1
T3 construct: Full size proteins were fused for each of the target proteins tested, except in the case of IKZF1 where isoform 7 was used; expressed in transfected cells; host or cells: HEK293T
Procedure: as §1, §2

[4] = read-out: IC50 Competition, HEK293T cells, competition with 300 nM trimethoprim-lenalidomide hybrid ligand, luciferase 24 hours after compound treatment

SMILES	Recruitment Assessment [1]	IC50 (CRBN; [4])	EC50 [2]	EC50 (ASS1 recruitment to CRBN)	EC50 [3]	IC50 (CRBN)
Cc1ccc2c(c1)C(=O)N(c1c(C(C)C)cccc1C(C)C)C2=O [5HPP-33, 2-(2,6-diisopropylphenyl)-5-methyl-isoindoline-1,3-dione, reference compound]	FALSE	5110 nM	–	–	–	–
Cc1cccc2nnn(C3CCC(=O)NC3=O)c(=O)c12 (centres unmarked) [C13247, 3-(5-methyl-4-oxo-1,2,3-benzotriazin-3-yl)piperidine-2,6-dione]	TRUE	–	402 nM	8550 nM	2880 nM	–
O=C1CCC(n2nnc3ccccc3c2=O)C(=O)N1 (centres unmarked) [C21223, 3-(4-oxo-1,2,3-benzotriazin-3-yl)piperidine-2,6-dione]	TRUE	–	517 nM	–	–	2240 nM
O=C1CCC(N2Cc3c(Cl)cccc3C2=O)C(=O)N1 (centres unmarked) [C24031, 3-(4-chloro-1-oxo-isoindolin-2-yl)piperidine-2,6-dione]	TRUE	–	< 13.7 nM	259 nM	58.7 nM	–
O=C1CCC(N2C(=O)C3CCCCC3C2=O)C(=O)N1 (centres unmarked) [C24191, 2-(2,6-dioxo-3-piperidyl)-3a,4,5,6,7,7a-hexahydroisoindole-1,3-dione]	FALSE	17700 nM	–	–	–	–
Cc1cccc2c1CN(C1CCC(=O)NC1=O)C2=O (centres unmarked) [C28558, 3-(4-methyl-1-oxo-isoindolin-2-yl)piperidine-2,6-dione]	TRUE	–	< 13.7 nM	368 nM	77.4 nM	–
Cc1ccc2c(c1)CN(C1CCC(=O)NC1=O)C2=O (centres unmarked) [C28577, 3-(5-methyl-1-oxo-isoindolin-2-yl)piperidine-2,6-dione]	TRUE	–	< 13.7 nM	653 nM	1610 nM	–
O=C1CCC(N2Cc3cc(NCCNC(=O)Nc4ccccc4)ccc3C2=O)C(=O)N1 (centres unmarked) [C35751, 1-[2-[[2-(2,6-dioxo-3-piperidyl)-1-oxo-isoindolin-5-yl]amino]ethyl]-3-phenyl-urea]	TRUE	–	232 nM	1450 nM	–	–
Cc1cccc2c(=O)n(C3CCC(=O)NC3=O)nnc12 (centres unmarked) [C35830, 3-(8-methyl-4-oxo-1,2,3-benzotriazin-3-yl)piperidine-2,6-dione]	TRUE	–	588 nM	5560 nM	–	–
O=C1CCC(N2Cc3c(cccc3-c3ccccc3)C2=O)C(=O)N1 (centres unmarked) [C48014, 3-(1-oxo-4-phenyl-isoindolin-2-yl)piperidine-2,6-dione]	TRUE	–	62.1 nM	921 nM	1240 nM	–
CC1c2ccccc2C(=O)N1C1CCC(=O)NC1=O (centres unmarked) [C51383, 3-(1-methyl-3-oxo-isoindolin-2-yl)piperidine-2,6-dione]	TRUE	–	59.3 nM	1700 nM	1520 nM	–
Nc1cccc2nnn(C3CCC(=O)NC3=O)c(=O)c12 (centres unmarked) [C59904, 3-(5-amino-4-oxo-1,2,3-benzotriazin-3-yl)piperidine-2,6-dione]	TRUE	–	330 nM	687 nM	122 nM	–
O=C1CCC(N2Cc3c(ccc4c3OCO4)C2=O)C(=O)N1 (centres unmarked) [C67858, 3-(6-oxo-8H-[1,3]dioxolo[4,5-e]isoindol-7-yl)piperidine-2,6-dione]	TRUE	–	29.3 nM	884 nM	569 nM	–
O=C1CC/C(=C/c2ccccc2)C(=O)N1 [C68121, (3Z)-3-benzylidenepiperidine-2,6-dione]	FALSE	6500 nM	–	–	–	–
O=C1CCC(N2Cc3cc(Nc4ncccn4)ccc3C2=O)C(=O)N1 (centres unmarked) [C80369, 3-[1-oxo-5-(pyrimidin-2-ylamino)isoindolin-2-yl]piperidine-2,6-dione]	TRUE	–	–	1290 nM	–	–
N#Cc1ccc(Nc2ccc3c(c2)CN(C2CCC(=O)NC2=O)C3=O)nn1 (centres unmarked) [C80378, 6-[[2-(2,6-dioxo-3-piperidyl)-1-oxo-isoindolin-5-yl]amino] pyridazine-3-carbonitrile]	TRUE	–	387 nM	9420 nM	–	–
O=C1CCC(N2Cc3ccc(NCC(=O)Nc4ccccc4)cc3C2=O)C(=O)N1 (centres unmarked) [C84965, 2-[[2-(2,6-dioxo-3-piperidyl)-3-oxo-isoindolin-5-yl]amino]-N-phenyl-acetamide]	TRUE	199 nM	–	–	–	–
O=C1CCC(Nc2ncc3ccccc3n2)C(=O)N1 (centres unmarked) [C97402, 3-(quinazolin-2-ylamino)piperidine-2,6-dione]	FALSE	6320 nM	–	–	–	–
Cc1ccc(NC(=O)NCc2ccc3c(c2)CN(C2CCC(=O)NC2=O)C3=O)cc1Cl (centres unmarked) [CC-885, 1-(3-chloro-4-methyl-phenyl)-3-[[2-(2,6-dioxo-3-piperidyl)-1-oxo-isoindolin-5-yl]methyl]urea, reference compound]	TRUE	–	–	80.1 nM	< 13.7 nM	–
